According to patent US11951092B2, “Agent for preventing or treating brain atrophy” (FUJIFILM Toyama Chemical Co., Ltd., priority 2017, dated 2024):

Key:
[1] = tested on: mild to moderate AD patients (brain volume: whole brain, hippocampus); assay: Test Example 2: Early Phase II placebo-controlled trial, brain volume change by volumetric MRI; format: in vivo, human
Excerpt: Multicenter Randomized Double-Blind Early Phase II Placebo-Controlled Trial for Assessing Effectiveness and Safety of Compound A in Mild to Moderate AD Patients
Patients were screened in a period from 28 days before treatment assignment to the assignment based on the following selection criteria. Patients matched (373 patients) were randomly divided into the following 2 groups and the trial was started.
Patients who were probable AD and over or 50 years old or older and 90 years old or younger at the time of obtaining consent of screening.
Patients with an MMSE score of 15 to 24 at the time of screening
(§1) Patients with a Modified Hachinski Ischemia Scale score of 4 or less
Patients who have been treated with a donepezil hydrochloride for at least 6 months before the baseline and with a stable dose thereof for 3 months before the baseline.
Patients whose brain MRI or CT results match AD at the time of screening Organization of groups:
(1) Active drug group: 224 mg of a test compound (160 mg in terms of Compound A) was orally administered once a day for 52 weeks (176 patients)
(2) Placebo group: placebo was orally administered once a day for 52 weeks (178 patients) Method of assessment:
(§2) Brain volume of subjects was measured by vMRI scan at the screening and after 52 weeks, and the volume change of the whole brain and the hippocampus of the subjects were quantified to assess brain atrophy based on the change from the screening.
The mean amount of volume change of the whole brain and the hippocampus after 52 weeks from the baseline, standard deviation and the difference from the placebo group were calculated.

[2] = tested on: mild to moderate AD patients (brain volume: whole brain, hippocampus, 101 areas); assay: Test Example 1: Phase II placebo-controlled trial, brain volume change by volumetric MRI; format: in vivo, human; conditions: for Change in brain volume, Hippocampus, Least square means / Change in brain volume, Whole brain, Least square means / Change in brain volume, Hippocampus, Difference from placebo group / Change in brain volume, Whole brain, Difference from placebo group: vMRI at week 52 from baseline
Excerpt: Multicenter Randomized Double-Blind Phase II Placebo-Controlled Trial for Assessing Effectiveness and Safety of Compound A in Mild to Moderate AD Patients Subject (selection criteria): Patients were screened in a period from 42 days before treatment assignment to the assignment based on the following selection criteria.
Patients who were probable AD and are 55 years old or older and 85 years old or younger at the time of obtaining consent of screening.
Patients with an MMSE score of 12 to 22 at the time of screening
as §1
Patients who have been treated with a donepezil hydrochloride or rivastigmine transdermal system for at least 4 months before the baseline and with a stable dose thereof for 3 months before the baseline.
In the case of patients who have received memantine in addition to being treated with a donepezil hydrochloride or rivastigmine transdermal system, patients who have been treated with memantine for at least 4 months before the baseline and with a stable dose thereof for 3 months before the baseline.
Patients whose brain MRI or CT results match AD at the time of screening
Organization of groups: Patients matched (484 patients) were randomly divided into the following 3 groups and the trial was started.
(1) High dose group: 224 mg of a test compound (160 mg in terms of Compound A) was orally administered once a day for 4 weeks and then 448 mg of a test compound (320 mg in terms of Compound A) was orally administered once a day for 48 weeks (158 patients)
(2) Low dose group: 224 mg of a test compound (160 mg in terms of Compound A) was orally administered once a day for 52 weeks (166 patients)
(3) Placebo group: placebo was orally administered once a day for 52 weeks (158 patients)
as §2
Furthermore, volume change of the whole brain and 101 areas (obtained by dividing the areas existing in both the left brain and the right brain of the Brodmann areas (1 to 52) into 101 areas) in each subject was quantified to assess brain atrophy based on the change from the screening.
Changes in the volume of the whole brain and the hippocampus after 52 weeks from the baseline were compared between the high dose group and the placebo group, and between the low dose group and the placebo group based on Mixed-effect Models. For models, the treatment groups were included as a fixed effect, age, baseline of the respective brain volumes (the whole brain or the hippocampus), baseline of MMSE and ApoE4 genotype (positive/negative) were included as covariates, and trial sites were included as a random effect.
Furthermore, changes in the respective volumes of the whole brain and the 101 areas after 52 weeks from the baseline were compared between the high dose group and the placebo group, and between the low dose group and the placebo group.

[3] = Compound A group vs placebo group, week 52 from baseline
[4] = Low dose (active drug) group, 160 mg in terms of Compound A oral once a day, 52 weeks, vMRI at week 52 from baseline
[5] = Low dose (active drug) group, vMRI at week 52 from baseline
[6] = High dose group (160 mg for 4 weeks then 320 mg in terms of Compound A, oral once a day, 48 weeks)
[7] = Low dose group (160 mg in terms of Compound A, oral once a day, 52 weeks)

Structure (SMILES): OC1CN(CCCOCCc2ccc3sccc3c2)C1 [Compound A, 1-(3-(2-(1-benzothiophen-5-yl)ethoxy)propyl)azetidin-3-ol]
- Change in the volume of the whole brain and the hippocampus versus placebo group (in words) [1, 3]: volume reduction tended to be smaller
- Change in brain volume, Hippocampus, Mean change [1, 4]: -0.21 mL
- Change in brain volume, Whole brain, Mean change [1, 4]: -3.83 mL
- Change in brain volume, Hippocampus, Difference from placebo group [1, 5]: 0.09 mL
- Change in brain volume, Whole brain, Difference from placebo group [1, 5]: 3.41 mL
- Change in the volume of the whole brain and the hippocampus versus placebo group (in words) [2, 3]: volume reduction tended to be smaller
- Volume reduction of the whole brain and the hippocampus versus placebo group (in words) ([2]; Compound A high dose group, analysis of whole brain and 101 areas): same tendency as in the low dose group was observed
- Volume reduction of the whole brain and the hippocampus versus placebo group (in words) ([2]; Compound A low dose group, analysis of whole brain and 101 areas (Nos. 6 and 14 in Table 2)): tended to be suppressed
- Change in brain volume, Hippocampus, Least square means [2, 6]: -0.31 mL
- Change in brain volume, Whole brain, Least square means [2, 6]: -20.05 mL
- Change in brain volume, Hippocampus, Difference from placebo group ([2]; High dose group): 0.08 mL
- Change in brain volume, Whole brain, Difference from placebo group ([2]; High dose group): 3.94 mL
- Change in brain volume, Hippocampus, Least square means [2, 7]: -0.27 mL
- Change in brain volume, Whole brain, Least square means [2, 7]: -21.37 mL
- Change in brain volume, Hippocampus, Difference from placebo group ([2]; Low dose group): 0.12 mL
- Change in brain volume, Whole brain, Difference from placebo group ([2]; Low dose group): 2.63 mL
- Change in brain volume, Mean value, Right-Cerebellum-White-Matter ([2]; Low dose group, week 52 from baseline, whole brain and 101 areas analysis): −0.89
